Experimental data as given in PubChem BioAssay (NCI).
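Each compound was tested at five concentrations against cells in 96-well plates for 48 hours. GI50 = concentration required for 50% inhibition of growth. TGI is the concentration that stops growth completely.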

Columns and labels:
Assay in all cases: DTP human tumour cell line panel, 48 h
786-0 renal = tested on: 786-0 renal
A498 renal = tested on: A498 renal
A549 NSCLC = tested on: A549 NSCLC
ACHN renal = tested on: ACHN renal
BT-549 breast = tested on: BT-549 breast
CAKI-1 renal = tested on: CAKI-1 renal
CCRF-CEM leukemia = tested on: CCRF-CEM leukemia
COLO 205 colon = tested on: COLO 205 colon
DU-145 prostate = tested on: DU-145 prostate
EKVX NSCLC = tested on: EKVX NSCLC
HCC-2998 colon = tested on: HCC-2998 colon
HCT-116 colon = tested on: HCT-116 colon
HCT-15 colon = tested on: HCT-15 colon
HL-60(TB) leukemia = tested on: HL-60(TB) leukemia
HOP-62 NSCLC = tested on: HOP-62 NSCLC
HOP-92 NSCLC = tested on: HOP-92 NSCLC
HS 578T breast = tested on: HS 578T breast
HT29 colon = tested on: HT29 colon
IGROV1 ovarian = tested on: IGROV1 ovarian
K-562 leukemia = tested on: K-562 leukemia
KM12 colon = tested on: KM12 colon
LOX IMVI melanoma = tested on: LOX IMVI melanoma
M14 melanoma = tested on: M14 melanoma
MALME-3M melanoma = tested on: MALME-3M melanoma
MCF7 breast = tested on: MCF7 breast
MDA-MB-231 breast = tested on: MDA-MB-231 breast
MDA-MB-435 = tested on: MDA-MB-435
MOLT-4 leukemia = tested on: MOLT-4 leukemia
NCI-H226 lung = tested on: NCI-H226 lung
NCI-H23 lung = tested on: NCI-H23 lung
NCI-H460 lung = tested on: NCI-H460 lung
NCI-H522 lung = tested on: NCI-H522 lung
NCI/ADR-RES ovarian = tested on: NCI/ADR-RES ovarian
OVCAR-3 ovarian = tested on: OVCAR-3 ovarian
OVCAR-4 ovarian = tested on: OVCAR-4 ovarian
OVCAR-5 ovarian = tested on: OVCAR-5 ovarian
OVCAR-8 ovarian = tested on: OVCAR-8 ovarian
PC-3 prostate = tested on: PC-3 prostate
RPMI-8226 leukemia = tested on: RPMI-8226 leukemia
SF-268 CNS = tested on: SF-268 CNS
SF-295 CNS = tested on: SF-295 CNS
SF-539 CNS = tested on: SF-539 CNS
SK-MEL-2 melanoma = tested on: SK-MEL-2 melanoma
SK-MEL-28 melanoma = tested on: SK-MEL-28 melanoma
SK-MEL-5 melanoma = tested on: SK-MEL-5 melanoma
SK-OV-3 ovarian = tested on: SK-OV-3 ovarian
SN12C renal = tested on: SN12C renal
SNB-19 CNS = tested on: SNB-19 CNS
SNB-75 CNS = tested on: SNB-75 CNS
SR leukemia = tested on: SR leukemia
SW-620 colon = tested on: SW-620 colon
T-47D breast = tested on: T-47D breast
TK-10 renal = tested on: TK-10 renal
U251 CNS = tested on: U251 CNS
UACC-257 melanoma = tested on: UACC-257 melanoma
UACC-62 melanoma = tested on: UACC-62 melanoma
UO-31 renal = tested on: UO-31 renal
RXF 393 renal = tested on: RXF 393 renal

## C=C1C[C@@H]2C/C=C/C(=O)C/C(C)=C\C=C\C(=O)O[C@H](C=O)C/C(C)=C/[C@H](C1)O2
786-0 renal
  GI50: 0.783 µM
  TGI: 18.3 µM
A498 renal
  GI50: > 28.5 µM
  TGI: > 55.6 µM
A549 NSCLC
  GI50: 1.98 µM
  TGI: > 100 µM
ACHN renal
  GI50: 6.64 µM
  TGI: 21.8 µM
BT-549 breast
  GI50: 0.315 µM
  TGI: 0.94 µM
CAKI-1 renal
  GI50: 4.71 µM
  TGI: 26 µM
CCRF-CEM leukemia
  GI50: 0.315 µM
  TGI: 0.956 µM
COLO 205 colon
  GI50: 0.885 µM
  TGI: 17.7 µM
DU-145 prostate
  GI50: 0.455 µM
  TGI: 2.32 µM
EKVX NSCLC
  GI50: 3.68 µM
  TGI: 21.2 µM
HCC-2998 colon
  GI50: 0.77 µM
  TGI: 3.32 µM
HCT-116 colon
  GI50: 0.37 µM
  TGI: 3.86 µM
HCT-15 colon
  GI50: 0.485 µM
  TGI: 16.2 µM
HL-60(TB) leukemia
  GI50: 0.243 µM
  TGI: 0.781 µM
HOP-62 NSCLC
  GI50: 1.75 µM
  TGI: 17.3 µM
HOP-92 NSCLC
  GI50: 0.367 µM
  TGI: 2.34 µM
HS 578T breast
  GI50: 4.23 µM
  TGI: > 65.1 µM
HT29 colon
  GI50: 0.281 µM
  TGI: 12.6 µM
IGROV1 ovarian
  GI50: 1.16 µM
  TGI: 21.7 µM
K-562 leukemia
  GI50: 0.16 µM
  TGI: > 40.2 µM
KM12 colon
  GI50: 1.17 µM
  TGI: 12.2 µM
LOX IMVI melanoma
  GI50: 0.711 µM
  TGI: 13.5 µM
M14 melanoma
  GI50: 0.281 µM
  TGI: 0.738 µM
MALME-3M melanoma
  GI50: 13.6 µM
  TGI: 38.4 µM
MCF7 breast
  GI50: 0.277 µM
  TGI: 13.6 µM
MDA-MB-231 breast
  GI50: 3.69 µM
  TGI: 13.1 µM
MDA-MB-435
  GI50: 0.316 µM
  TGI: > 100 µM
MOLT-4 leukemia
  GI50: 2.72 µM
  TGI: 13.7 µM
NCI-H226 lung
  GI50: 8.49 µM
  TGI: 49 µM
NCI-H23 lung
  GI50: 5.16 µM
  TGI: 23.1 µM
NCI-H460 lung
  GI50: 3.07 µM
  TGI: 16.7 µM
NCI-H522 lung
  GI50: 4.48 µM
  TGI: 19.5 µM
NCI/ADR-RES ovarian
  GI50: 2.58 µM
  TGI: > 100 µM
OVCAR-3 ovarian
  GI50: 0.557 µM
  TGI: 24.4 µM
OVCAR-4 ovarian
  GI50: 4.65 µM
  TGI: 70 µM
OVCAR-5 ovarian
  GI50: 2.31 µM
  TGI: 13.5 µM
OVCAR-8 ovarian
  GI50: 1.49 µM
  TGI: > 100 µM
PC-3 prostate
  GI50: 0.354 µM
  TGI: 21.4 µM
RPMI-8226 leukemia
  GI50: 0.295 µM
  TGI: 3.29 µM
SF-268 CNS
  GI50: 1.39 µM
  TGI: 19.6 µM
SF-295 CNS
  GI50: 3.26 µM
  TGI: 43.2 µM
SF-539 CNS
  GI50: 0.328 µM
  TGI: 1.64 µM
SK-MEL-2 melanoma
  GI50: 6.1 µM
  TGI: 34.9 µM
SK-MEL-28 melanoma
  GI50: 2.91 µM
  TGI: 20.5 µM
SK-MEL-5 melanoma
  GI50: 2.62 µM
  TGI: 16.6 µM
SK-OV-3 ovarian
  GI50: 5.36 µM
  TGI: > 100 µM
SN12C renal
  GI50: 0.697 µM
  TGI: 20.4 µM
SNB-19 CNS
  GI50: 4.34 µM
  TGI: 24.8 µM
SNB-75 CNS
  GI50: 0.294 µM
  TGI: 1.96 µM
SR leukemia
  GI50: 1.18 µM
  TGI: 6.77 µM
SW-620 colon
  GI50: 0.449 µM
  TGI: 15.7 µM
T-47D breast
  GI50: 1.42 µM
  TGI: 54.3 µM
TK-10 renal
  GI50: 3.62 µM
  TGI: 18 µM
U251 CNS
  GI50: 0.711 µM
  TGI: 14.1 µM
UACC-257 melanoma
  GI50: 14.1 µM
  TGI: 34.7 µM
UACC-62 melanoma
  GI50: 0.818 µM
  TGI: 14 µM
UO-31 renal
  GI50: 3.33 µM
  TGI: 56.4 µM

## N#CC1=C(N)NC(=S)NC12Nc1ccccc1O2 (stereo unspecified)
786-0 renal
  GI50: 30.1 µM
  TGI: > 100 µM
A549 NSCLC
  GI50: 37.2 µM
  TGI: > 100 µM
ACHN renal
  GI50: 29.2 µM
  TGI: 99.2 µM
BT-549 breast
  GI50: 48.2 µM
  TGI: > 100 µM
CAKI-1 renal
  GI50: 39.1 µM
  TGI: > 100 µM
CCRF-CEM leukemia
  GI50: 61.7 µM
  TGI: > 100 µM
COLO 205 colon
  GI50: 28.1 µM
  TGI: > 100 µM
DU-145 prostate
  GI50: 55.1 µM
  TGI: > 100 µM
EKVX NSCLC
  GI50: 62.3 µM
  TGI: > 100 µM
HCT-116 colon
  GI50: 22.5 µM
  TGI: 85.2 µM
HCT-15 colon
  GI50: 21.6 µM
  TGI: > 100 µM
HL-60(TB) leukemia
  GI50: 17.2 µM
  TGI: > 100 µM
HOP-62 NSCLC
  GI50: 17.5 µM
  TGI: 57.7 µM
HOP-92 NSCLC
  GI50: > 100 µM
  TGI: > 100 µM
HS 578T breast
  GI50: 19.1 µM
  TGI: 60.2 µM
HT29 colon
  GI50: 31.2 µM
  TGI: 90.8 µM
IGROV1 ovarian
  GI50: 3.17 µM
  TGI: 24.9 µM
K-562 leukemia
  GI50: 13.7 µM
  TGI: > 100 µM
KM12 colon
  GI50: 27.1 µM
  TGI: > 100 µM
LOX IMVI melanoma
  GI50: 20.2 µM
  TGI: 50.4 µM
M14 melanoma
  GI50: 26 µM
  TGI: > 100 µM
MALME-3M melanoma
  GI50: > 100 µM
  TGI: > 100 µM
MCF7 breast
  GI50: 27.2 µM
  TGI: > 100 µM
MDA-MB-231 breast
  GI50: 19.3 µM
  TGI: 76.7 µM
MDA-MB-435
  GI50: 16.8 µM
  TGI: > 100 µM
MOLT-4 leukemia
  GI50: 3.72 µM
  TGI: > 100 µM
NCI-H226 lung
  GI50: 30.5 µM
  TGI: > 100 µM
NCI-H23 lung
  GI50: 20.4 µM
  TGI: 69.7 µM
NCI-H460 lung
  GI50: 65.5 µM
  TGI: > 100 µM
NCI-H522 lung
  GI50: 11.5 µM
  TGI: 43.1 µM
NCI/ADR-RES ovarian
  GI50: 20.5 µM
  TGI: 69.6 µM
OVCAR-3 ovarian
  GI50: 36.4 µM
  TGI: > 100 µM
OVCAR-4 ovarian
  GI50: 52 µM
  TGI: > 100 µM
OVCAR-5 ovarian
  GI50: 40.7 µM
  TGI: > 100 µM
OVCAR-8 ovarian
  GI50: 46.2 µM
  TGI: > 100 µM
PC-3 prostate
  GI50: 28.6 µM
  TGI: > 100 µM
RPMI-8226 leukemia
  GI50: 21.9 µM
  TGI: 62.7 µM
RXF 393 renal
  GI50: > 100 µM
  TGI: > 100 µM
SF-268 CNS
  GI50: 51.2 µM
  TGI: > 100 µM
SF-295 CNS
  GI50: 38.4 µM
  TGI: > 100 µM
SF-539 CNS
  GI50: 45.8 µM
  TGI: > 100 µM
SK-MEL-2 melanoma
  GI50: 20.9 µM
  TGI: 53.4 µM
SK-MEL-28 melanoma
  GI50: 45.7 µM
  TGI: > 100 µM
SK-MEL-5 melanoma
  GI50: 27.1 µM
  TGI: 85.4 µM
SK-OV-3 ovarian
  GI50: 37.9 µM
  TGI: > 100 µM
SN12C renal
  GI50: 25.2 µM
  TGI: 90 µM
SNB-19 CNS
  GI50: 23.9 µM
  TGI: > 100 µM
SNB-75 CNS
  GI50: 59.5 µM
  TGI: > 100 µM
SR leukemia
  GI50: 0.597 µM
  TGI: > 100 µM
SW-620 colon
  GI50: 47.6 µM
  TGI: > 100 µM
T-47D breast
  GI50: 41.5 µM
  TGI: > 100 µM
TK-10 renal
  GI50: 42.5 µM
  TGI: > 100 µM
U251 CNS
  GI50: 28.2 µM
  TGI: > 100 µM
UACC-257 melanoma
  GI50: 35.3 µM
  TGI: > 100 µM
UACC-62 melanoma
  GI50: 20.8 µM
  TGI: 70 µM
UO-31 renal
  GI50: 25.4 µM
  TGI: > 100 µM
